Data reported in PMC3791872 (Bioscience Reports, 2013).

Legend:
[1] = system: S. cerevisiae ∆erg6 mcm4chaos3 (UPY1056); assay: Yeast growth inhibition, 96-well assay, ∆erg6 mcm4chaos3 strain; assay type: cell-based; conditions: Saccharomyces cerevisiae; growth over 24 h
[2] = system: T1, Mcm2-7; assay: Steady-state ATP hydrolysis by Mcm2-7; assay type: biochemical, Saccharomyces cerevisiae; conditions: 1 mM compound, 100 nM hexamer
T1 construct: made in house; host or cells: baculovirus-infected insect cells

[3] = system: RPE-hTERT cells; assay: Human cell viability, MTS method; assay type: cell-based; conditions: Homo sapiens, 48 h, value (95% CI)
Description: Ciproﬂoxacin is an inhibitor of the Mcm2-7 […]
The viability of human cells was assayed using the MTS method
[1]. Brieﬂy, 1 ×10^5 cells of the human non-tumour cell line RPE-hTERT were plated into each well of a 96-well plate and grown in DMEM: F12 containing 10 % (v/v) FBS in 5 % (v/v) CO2 at 37 ◦ C. The next day, the indicated compounds were titrated into media such that the ﬁnal concentration contained 1 % (v/v)
DMSO. As a negative control, media were also prepared that contained 1 % DMSO but lacked compound. After 48 h, the media was removed and replaced with DMEM lacking phenol red but containing Cell Titer 96 Aqueous One Solution Cell Proliferation
Assay (Promega). After 1 h, the A490 nm was measured using a BioRad iMark Microplate Reader (Hercules). Final data reﬂect the average and standard deviation (S.D.) of three replicates at each compound concentration. […]

[4] = system: Wild-type yeast; assay: Yeast growth inhibition, wild-type strain; assay type: cell-based, Saccharomyces cerevisiae; conditions: Figure 4A
Description: S. cerevisiae growth inhibition was quantified using an established 96-well assay. Two isogenic W303 tester strains were used (construction details available upon request): UPY675 (matA, ade2-1, ura3-1, his3-11,15, trp1-1, leu2-3,112, can1-100, bar1::hisG, Δerg6::kanMX) and UPY1056 (isogenic to UPY675 but containing mcm4chaos3). Overnight yeast cultures were grown in YPD medium (1% (w/v) yeast extract/2% (w/v) peptone/2% (w/v) glucose), diluted to 0.05 A600, grown to an A600 of 0.1–0.15, divided into aliquots into a 96-well plate, and then treated with inhibitor titrations. Inhibitors were first diluted in pure DMSO, and then added to wells to a final volume of 100 μl containing 2% (v/v) DMSO. Plates were grown without shaking at 30°C for 24 h. Optical density was quantified at 0 and 24 h with a Bio-tek EL800 Universal Microplate reader. Percent relative growth was determined by calculating the change in optical density over 24 h at each concentration relative to a 2% DMSO control.

SMILES: O=C(O)c1cn(C2CC2)c2cc(N3CCNCC3)c(F)cc2c1=O [Ciprofloxacin, ciprofloxacin, reference compound]
- IC50 [1]: 1300 µM
- effect on ATP hydrolysis of Mcm2-7 [2]: only modest effects
- IC50 [3]: 240 µM
- growth response of wild-type yeast [4]: resistant
